Patent EP0063827A1, “1-Isopropyl- and 1-isobutyl-3,7-dimethyl xanthine as pharmaceutical preparations” (SOCIETE DES PRODUITS NESTLE S.A., priority 1980, dated 1980)

What was measured:
[1] = test system: anxiété induite par un nouvel environnement; assay: Behavioural study in rats: locomotion and rearing counts under anxiety induced by a new environment; type: in vivo, rat; settings: for profil d'action: conclusion in words from the behavioural study in the rat; for d/r: ratio of slope of déplacements to slope of redressements, specificity of effect on anxiety
Source text: La 1-isopropyl- et la l-isobutyl-3,7-diméthylxan- thine ont fait l'objet d'une étude comportementale chez le rat en fonction de l'anxiété induite par un nouvel environnement. Chez le rat, l'anxiété se manifeste par des redressements de celui-ci sur ses deux pattes postérieures, tandis que ses déplacements sont l'expression de l'activité locomotrice.
• - L'induction d'un état d'anxiété s'effectue par confrontation de rats mâles "naïfs" Sprague-Dawley (Iffa-Credo, France), pesant 260 à 300 g avec un nouvel environnement constitué par des cages en Macrolon ^0 (30 x 25 cm) qui se situent dans une chambre insonorisée et climatisée (22°C et 50 % d'humidité relative). • - La détermination du nombre de redressements et de déplacements a lieu de façon automatique à partir de cellules photo-électriques à infrarouge qui n'émettent des impulsions électriques que pour les mouvements francs de l'animal et pas pour les mouvements statiques comme ceux de la tête et de la queue et ceci pour des raisons de reproductibilité. Ces cellules photo-électriques quadrillent les cages à deux niveaux différents de façon à distinguer les redressements des déplacements. Le nombre de redressements et de déplacements est compté par les deux séries de cellules photo-électriques, mémorisé et restitué sur une imprimante selon un programme préétabli. • - On administre oralement par intubation oesophagienne le composé testé en solution, l'administration de référence étant constituée par 6 ml/kg d'eau distillée, et ceci 30 minutes avant de placer les animaux dans les cages. Le nombre de redressements et de déplacements est déterminé durant les 15 minutes qui suivent la mise en cage, par rapport à l'effet engendré par l'administration de référence.
• - Le tableau I ci-après montre l'évolution des effets des substances testées sur le nombre de déplacements et de redressements en fonction des doses administrées exprimé en pourcentage des déplacements et redressements comptés pour l'administration de référence. [formula] • - A partir des données précédentes, on établit les droites de régression pour les déplacements et les redressements selon la méthode décrite par Saubrié, P.J. Pharmacol, (Paris) 2 (1971) 457-472, l'équation de ces droites de régression correspondant à la moyenne exprimée en % des performances des références en fonction produit par 10 du logarithme des doses (on ne considère que les doses ne diminuant pas l'activité motrice de plus de 75 %). • - La comparaison des pentes des droites de régression correspondant aux déplacements et aux redressements est effectuée en portant sur un système d'axes orthonormés en abscisse (d) la valeur de la pente de la droite des déplacements et en ordonnée (r) celle de la pente des redressements. Ces valeurs mettent en évidence la relation effet-dose pour une substance donnée. • - On détermine également le rapport de la pente des déplacements sur celle des redressements qui permet de juger de la spécificité d'effet d'une substance donnée sur l'anxiété.
La détermination de l'effet d'une substance est donnée par sa localisation par rapport à la droite d = r de pente = 1. Les substances situées sur cette droite ont un effet semblable sur les redressements et les déplacements. Les substances pour lesquelles la valeur absolue de la pente des redressements est significativement supérieure à celle des déplacements ont une action spécifique sur l'anxiété.

[2] = test system: enflement de l'oreille chez la souris; assay: Delayed cutaneous hypersensitivity test (oxazolone), inhibition of ear swelling; type: in vivo; settings: for % d'inhibition de l'enflement d'oreille: dose 150 mg/kg de poids corporel, ear thickness 24 h after challenge, relative to control
Method: L'activité immunosuppressante a été comparée à celle du cyclophosphamide, médicament immunosuppressant connu, comme inhibiteur de l'enflement de l'oreille chez la souris en réponse à l'agression antigénique dans un test d'hypersensibilisation cutanée retard à la dose de 150 mg/kg.
Le test a été conduit par exemple comme décrit par G.L. Asherson et W. Ptak dans Immunology 15, 405 (1968). Des souris ont été immunisées par application cutanée abdominale de 0,1 ml d'une solution à 3 % d'oxazolone. 7 jours après la sensibilisation, les animaux ont été provoqués par peinture de la même solution sur la peau de l'oreille. On a administré simultanément soit le composé ci-dessus soit le cyclophosphamide à une partie des animaux, les animaux restants servant de contrôle. 24 heures après l'agression, on a mesuré l'épaisseur de l'oreille. L'activité immunosuppressante exprimée en % de l'inhibition de l'enflement de l'oreille par rapport au contrôle est indiquée ci-après : […]

Row | Compound | profil d'action [1] | % d'inhibition de l'enflement d'oreille [2] [%] | d/r [1] | further results
1 | CC(C)Cn1c(=O)c2c(ncn2C)n(C)c1=O [1-isobutyl-3,7-diméthylxanthine] | sédatif non spécifique |  |  | profil d'action ([1]; listed as l-isobutyl-3,7-diméthylxanthine): effet sédatif comparable à celui d'un neuroleptique type
2 | Cn1cnc2c1c(=O)n(Cn1c(=O)c3c(ncn3C)n(C)c1=O)c(=O)n2C [di(3,7-diméthylxanthin-1-yl)méthane] |  | 55 |  | activité immunosuppressante ([2]; result in words): a montré une activité immunosuppressante
3 | Cn1c(=O)c2[nH]cnc2n(C)c1=O [théophylline, reference compound] | psychostimulante et n'a pas d'effet sur l'anxiété |  | > 1 | 
4 | CNC1=Nc2ccc(Cl)cc2C(c2ccccc2)=[N+]([O-])C1 [chlordiazépoxide, reference compound] |  |  | < 1 | 
5 | CC(C)n1c(=O)c2c(ncn2C)n(C)c1=O [1-isopropyl-3,7-diméthylxanthine] |  |  | < 1 | 
6 | O=P1(N(CCCl)CCCl)NCCCO1 (stereo not drawn) [cyclophosphamide, reference compound] |  | 73 |  | 
